The results in this text go back to PubChem BioAssay AID1259407 (Chemical Carcinogenesis Research Information System (CCRIS), 2018).

For this data set, the system named is CCRIS mutagenicity, Ames/micronucleus/aberration tests. Put plainly: CCRIS mutagenicity studies.
The mark [1] stands for this setting: Test System: AMES SALMONELLA TYPHIMURIUM, Strain/Indicator: TA98, Metabolic Activation: NONE, Method: PREINCUBATION
Where [2] appears, read: Test System: AMES SALMONELLA TYPHIMURIUM, Strain/Indicator: TA100, Metabolic Activation: NONE, Method: PREINCUBATION
Setting [3] is: Test System: AMES SALMONELLA TYPHIMURIUM, Strain/Indicator: TA1535, Metabolic Activation: NONE, Method: PREINCUBATION
The mark [4] stands for this setting: Test System: AMES SALMONELLA TYPHIMURIUM, Strain/Indicator: TA1537, Metabolic Activation: NONE, Method: PREINCUBATION
Setting [5] is: Test System: AMES SALMONELLA TYPHIMURIUM, Strain/Indicator: TA1535, Metabolic Activation: NONE, Method: STANDARD PLATE.

The source made the active and inactive calls. The rule behind the calls is not given here.

Turning to `C=CC[C@]1(O)CC[C@H]2[C@@H]3CCC4=CCCC[C@@H]4[C@H]3CC[C@@]21C`, the mutagenic call (End Point: IN VIVO MICRONUCLEUS, Test System: HEPATOCYTES, Species: RAT, Strain/Sex: SPRAGUE-DAWLEY/FEMALE, Route: INTRAGASTRIC (GAVAGE)) was “inactive; negative (increase not significant)”.
In the case of `O=C(O)CO.[NH2-].[NH2-].[Pt+2]`, the mutagenic call was “active; positive” under setting [1]; “active; positive” (Test System: AMES SALMONELLA TYPHIMURIUM, Strain/Indicator: TA98, Metabolic Activation: RAT, LIVER, S-9, PHENOBARBITAL AND 5,6-BENZOFLAVONE, Method: PREINCUBATION); “active; positive” under setting [2]; “active; positive” (Test System: AMES SALMONELLA TYPHIMURIUM, Strain/Indicator: TA100, Metabolic Activation: RAT, LIVER, S-9, PHENOBARBITAL AND 5,6-BENZOFLAVONE, Method: PREINCUBATION); “inactive; negative” under setting [3]; “inactive; negative” (Test System: AMES SALMONELLA TYPHIMURIUM, Strain/Indicator: TA1535, Metabolic Activation: RAT, LIVER, S-9, PHENOBARBITAL AND 5,6-BENZOFLAVONE, Method: PREINCUBATION). Besides, the mutagenic call by setting is: under setting [4], “inactive; negative”; (Test System: AMES SALMONELLA TYPHIMURIUM, Strain/Indicator: TA1537, Metabolic Activation: RAT, LIVER, S-9, PHENOBARBITAL AND 5,6-BENZOFLAVONE, Method: PREINCUBATION) “inactive; negative”; (Test System: E.COLI, Strain/Indicator: WP2 UVRA, Metabolic Activation: NONE, Method: PREINCUBATION) “inactive; negative”; (Test System: E.COLI, Strain/Indicator: WP2 UVRA, Metabolic Activation: RAT, LIVER, S-9 PHENOBARBITAL AND 5,6-BENZOFLAVONE, Method: PREINCUBATION) “inactive; negative”.
Take `Cc1cc2c3c(cccc3c1)-c1cc3ccccc3cc1-2`: the mutagenic call (Test System: AMES SALMONELLA TYPHIMURIUM, Strain/Indicator: TA100, Metabolic Activation: RAT, LIVER, S-9, AROCLOR 1254) is “active; positive”.
Take `NC(=O)CNC(=O)N(CCCl)N=O`: the mutagenic call under setting [5] is “active; positive”.
Take `CN(C)c1ccc(C(=C2C=CC(=[N+](C)C)C=C2)c2c(O)c(S(=O)(=O)[O-])cc3cc(S(=O)(=O)O)ccc23)cc1`: the mutagenic call reads like this: (Test System: AMES SALMONELLA TYPHIMURIUM, Strain/Indicator: TA98, Metabolic Activation: NONE, Method: STANDARD PLATE) “inactive; negative”; (Test System: AMES SALMONELLA TYPHIMURIUM, Strain/Indicator: TA98, Metabolic Activation: RAT, LIVER, S-9, AROCLOR 1254, Method: STANDARD PLATE) “inactive; negative”; (Test System: AMES SALMONELLA TYPHIMURIUM, Strain/Indicator: TA100, Metabolic Activation: NONE, Method: STANDARD PLATE) “inactive; negative”; (Test System: AMES SALMONELLA TYPHIMURIUM, Strain/Indicator: TA100, Metabolic Activation: RAT, LIVER, S-9, AROCLOR 1254, Method: STANDARD PLATE) “inactive; negative”; under setting [5], “inactive; negative”; (Test System: AMES SALMONELLA TYPHIMURIUM, Strain/Indicator: TA1535, Metabolic Activation: RAT, LIVER, S-9, AROCLOR 1254, Method: STANDARD PLATE) “inactive; negative”. In addition, the mutagenic call by setting is: (Test System: AMES SALMONELLA TYPHIMURIUM, Strain/Indicator: TA1538, Metabolic Activation: NONE, Method: STANDARD PLATE) “inactive; negative”; (Test System: AMES SALMONELLA TYPHIMURIUM, Strain/Indicator: TA1538, Metabolic Activation: RAT, LIVER, S-9, AROCLOR 1254, Method: STANDARD PLATE) “inactive; negative”.
As for `Nc1ccc(Cl)cc1Cl`, the mutagenic call was “inactive; negative” (Test System: AMES SALMONELLA TYPHIMURIUM, Strain/Indicator: TA97, Metabolic Activation: HAMSTER, LIVER, S-9, AROCLOR 1254 (10 OR 30%), Method: PREINCUBATION); “inactive; negative” (Test System: AMES SALMONELLA TYPHIMURIUM, Strain/Indicator: TA97, Metabolic Activation: NONE, Method: PREINCUBATION); “inactive; negative” (Test System: AMES SALMONELLA TYPHIMURIUM, Strain/Indicator: TA97, Metabolic Activation: RAT, LIVER, S-9, AROCLOR 1254 (10 OR 30%), Method: PREINCUBATION); “inactive; negative” (Test System: AMES SALMONELLA TYPHIMURIUM, Strain/Indicator: TA98, Metabolic Activation: HAMSTER, LIVER, S-9, AROCLOR 1254 (10%), Method: PREINCUBATION); “inactive; negative” (Test System: AMES SALMONELLA TYPHIMURIUM, Strain/Indicator: TA98, Metabolic Activation: HAMSTER, LIVER, S-9, AROCLOR 1254 (30%), Method: PREINCUBATION); “inactive; negative” under setting [1]. In addition, the mutagenic call is “inactive; negative” (Test System: AMES SALMONELLA TYPHIMURIUM, Strain/Indicator: TA98, Metabolic Activation: RAT, LIVER, S-9, AROCLOR 1254 (5 OR 30%), Method: PREINCUBATION); “inactive; negative” (Test System: AMES SALMONELLA TYPHIMURIUM, Strain/Indicator: TA98, Metabolic Activation: RAT, LIVER, S-9, AROCLOR 1254 (10%), Method: PREINCUBATION); “inactive; negative” (Test System: AMES SALMONELLA TYPHIMURIUM, Strain/Indicator: TA100, Metabolic Activation: HAMSTER, LIVER, S-9, AROCLOR 1254 (5%), Method: PREINCUBATION); “inactive; negative” (Test System: AMES SALMONELLA TYPHIMURIUM, Strain/Indicator: TA100, Metabolic Activation: HAMSTER, LIVER, S-9, AROCLOR 1254 (10%), Method: PREINCUBATION); “inactive; negative” (Test System: AMES SALMONELLA TYPHIMURIUM, Strain/Indicator: TA100, Metabolic Activation: HAMSTER, LIVER, S-9, AROCLOR 1254 (30%), Method: PREINCUBATION); “inactive; negative” under setting [2]. Further, the mutagenic call is, setting by setting: (Test System: AMES SALMONELLA TYPHIMURIUM, Strain/Indicator: TA100, Metabolic Activation: RAT, LIVER, S-9, AROCLOR 1254 (10%), Method: PREINCUBATION) “inactive; negative”; (Test System: AMES SALMONELLA TYPHIMURIUM, Strain/Indicator: TA100, Metabolic Activation: RAT, LIVER, S-9, AROCLOR 1254 (30%), Method: PREINCUBATION) “inactive; negative”; (Test System: AMES SALMONELLA TYPHIMURIUM, Strain/Indicator: TA1535, Metabolic Activation: HAMSTER, LIVER, S-9, AROCLOR 1254 (10 OR 30%), Method: PREINCUBATION) “inactive; negative”; under setting [3], “inactive; negative”; (Test System: AMES SALMONELLA TYPHIMURIUM, Strain/Indicator: TA1535, Metabolic Activation: RAT, LIVER, S-9, AROCLOR 1254 (10 OR 30%), Method: PREINCUBATION) “inactive; negative”; (Test System: AMES SALMONELLA TYPHIMURIUM, Strain/Indicator: TA1537, Metabolic Activation: HAMSTER, LIVER, S-9, AROCLOR 1254 (30%), Method: PREINCUBATION) “inactive; negative”. The mutagenic call under setting [4] was “inactive; negative” and the mutagenic call (Test System: AMES SALMONELLA TYPHIMURIUM, Strain/Indicator: TA1537, Metabolic Activation: RAT, LIVER, S-9, AROCLOR 1254 (30%), Method: PREINCUBATION) is “inactive; negative”.
`Cc1nc2ccc(NCCN(C)C)c3c(=O)c4cc(O)ccc4n1c23`: where the note is “Test System: CHINESE HAMSTER V-79, Strain/Indicator: V-79 (HGPRT)/6-THIOGUANINE, Metabolic Activation: NONE”, the mutagenic call was “active; positive”.
